In patent US20220008495A1, “APPLICATION OF PHLEGMYHEATCLEAR IN PREPARATION OF DRUG FOR TREATMENT OF ACUTE EXACERBATION OF CHRONIC OBSTRUCTIVE PULMONARY DISEASE” (SHANGHAI KAIBAO PHARMACEUTICAL CO., LTD., priority 2020, published 2022):
Marks after values point to notes of the source that are not given here.

Experiments:
Type in all cases: in vivo, SD rats
[1] = tested on: model of rats with acute exacerbation of chronic obstructive pulmonary disease; assay: Lung functions (animal pulmonary function test system); settings: dexamethasone 0.23 mg/kg/d gavage 7 days; x±SD, n=6-12
Excerpt: (§1) The rats were allowed to acclimate to their surroundings for 7 days since purchased from the specific company. The rats were fed sterilized feed and allowed to free access to sterilized water. Operators regularly checked purification and water and electricity operating system to keep a quite environment. 14 rats were selected to fall into a blank control group, and the remaining rats were subjected to cigarette smoking and repeatedly infected with Klebsiella pneumoniae (KP) to establish chronic obstructive pulmonary disease (COPD) stable-phase model of rats. The method comprises the steps of: light a cigarette, making smoke concentration reach 3000±500 ppm, twice a day. The rats took a rest for at least 3 hours between the two times of being exposed to cigarette smoking, lasting for a total of 12 weeks. From 1 to 8 weeks, model of rats were instilled KP suspension (6×10^8 CFU/ml) 0.1 ml through the nasal cavity every 5 days. Instillation via the nasal cavity: a sterilized 1 ml syringe was used to draw 0.1 ml of KP suspension; the KP suspension was instilled into the rats when the rats were breathing in, and the instillation process was done in either the left and right nostrils in an alternating way. Lipopolysaccharide (LPS) 2 mg/kg was instilled into the trachea on the first day of the 13th week to establish model of rats with acute exacerbation of chronic obstructive pulmonary disease. After successful modeling, the model of rats were randomly divided into five groups, including a model control group, a high dose of phlegmyheatclear group, a middle dose of phlegmyheatclear group, a low dose of phlegmyheatclear group, and a dexamethasone group, with 12 rats in each group.
The administration was started from the 2nd day of the 13th week. The same volume of purified water (10 ml/kg/d) was administered intragastrically to rats in the blank control group and the model control group, and the other groups were received high dose of phlegmyheatclear, middle dose of phlegmyheatclear, low dose of phlegmyheatclear, and dexamethasone once a day. All the rats were fasted within 12 hours before sampling of blood, however, the rats were allowed to free access to water. Blood samples were collected from caudal vein for CBC. Then the rats were anesthetized by intraperitoneal injection of 10% 1.0 ml/100 g urethane. Exposed tracheal intubation was performed. Changes of the pulmonary functions of the rats were detected by using an animal pulmonary function test system (PET). Blood was collected from the abdominal aorta, and the collected blood was placed for 2 hours and centrifuged to obtain the blood serum to detect the levels of inflammatory factors IL-6, IL-10, CRP and SAA. The rat trachea and the whole lung were taken out by thoracotomy. The right main bronchus was ligated, and the left bronchoalveolar lavage fluid (BALF) was drawn out to detect the level of inflammatory factor TNF-α; the left lung was perfused with 4% paraformaldehyde for 1 hour, and the left lung was directly fixed in the 4% paraformaldehyde for pathological examination.
Before sampling, the rats were anesthetized by intraperitoneal injection of 10% 1.0 ml/100 g urethane. Exposed tracheal intubation was performed. Relevant parameters of each rat were detected by using an animal pulmonary function test system (PET), wherein the parameters include forced vital capacity (FVC), forced expiratory volume at 0.1 s (FEV0.1), forced expiratory volume at 0.3 s (FEV0.3), maximum expiratory flow rate (PEF), mid-maximum expiratory flow (MMEF), functional residual capacity (FRC), and other parameters, changes in lung function (x±SD) of rats in each group are shown in Table 3.

[2] = tested on: model of rats with acute exacerbation of chronic obstructive pulmonary disease; assay: Determination of IL-6, IL-10 in serum and TNF-α in alveolar lavage fluid (ELISA); settings: dexamethasone 0.23 mg/kg/d gavage 7 days, n=10-12
Procedure: The administration was started from the 2nd day of the 13th week. The same volume of purified water (10 ml/kg/d) was administered intragastrically to rats in the blank control group and the model control group, and the other groups were received high dose of phlegmyheatclear, middle dose of phlegmyheatclear, low dose of phlegmyheatclear, and dexamethasone once a day. All the rats were fasted within 12 hours before sampling of blood, however, the rats were allowed to free access to water. […] Then the rats were anesthetized by intraperitoneal injection of 10% 1.0 ml/100 g urethane. Exposed tracheal intubation was performed. […]

[3] = tested on: model of rats with acute exacerbation of chronic obstructive pulmonary disease; assay: Complete blood count (peripheral blood inflammatory cells); settings: dexamethasone 0.23 mg/kg/d gavage 7 days, x±SD
Excerpt: as §1
The administration was started from the 2nd day of the 13th week. The same volume of purified water (10 ml/kg/d) was administered intragastrically to rats in the blank control group and the model control group, and the other groups were received high dose of phlegmyheatclear, middle dose of phlegmyheatclear, low dose of phlegmyheatclear, and dexamethasone once a day. All the rats were fasted within 12 hours before sampling of blood, however, the rats were allowed to free access to water. Blood samples were collected from caudal vein for CBC. Then the rats were anesthetized by intraperitoneal injection of 10% 1.0 ml/100 g urethane. Exposed tracheal intubation was performed. Changes of the pulmonary functions of the rats were detected by using an animal pulmonary function test system (PET). […]
Blood samples were collected from caudal vein for CBC, the following items were counted: the white blood cell count (WBC), the ratio of neutrophils (NEU %), the percentage of lymphocytes (% LYMPH) and the percentage of mononuclear cells (% MONO).

[4] = tested on: model of rats with acute exacerbation of chronic obstructive pulmonary disease; assay: Pathological examination of lung tissue (HE staining; MLI, MAN, bronchial wall thickness); settings: dexamethasone 0.23 mg/kg/d gavage 7 days; x±SD, n=8
Procedure: The administration was started from the 2nd day of the 13th week. The same volume of purified water (10 ml/kg/d) was administered intragastrically to rats in the blank control group and the model control group, and the other groups were received high dose of phlegmyheatclear, middle dose of phlegmyheatclear, low dose of phlegmyheatclear, and dexamethasone once a day. All the rats were fasted within 12 hours before sampling of blood, however, the rats were allowed to free access to water. […] Then the rats were anesthetized by intraperitoneal injection of 10% 1.0 ml/100 g urethane. Exposed tracheal intubation was performed. […] The rat trachea and the whole lung were taken out by thoracotomy. […]

[5] = tested on: model of rats with acute exacerbation of chronic obstructive pulmonary disease; assay: Determination of serum CRP and SAA levels (ELISA); settings: dexamethasone 0.23 mg/kg/d gavage 7 days, x±SD, n=9-12
Excerpt: as §1, with “Lipopolysaccharide (LPS) 2 mg/kg was instilled into the trachea on the first day of the 13th week to establish model of rats with acute exacerbation of chronic obstructive pulmonary disease. After successful modeling, the model of rats were randomly divided into five groups, including a model control group, a high dose of phlegmyheatclear group, a middle dose of phlegmyheatclear group, a low dose of phlegmyheatclear group, and a dexamethasone group, with 12 rats in each group.” left out
The administration was started from the 2nd day of the 13th week. […] Changes of the pulmonary functions of the rats were detected by using an animal pulmonary function test system (PET). […]

SMILES: C[C@@H]1C[C@H]2[C@@H]3CCC4=CC(=O)C=C[C@]4(C)[C@@]3(F)[C@@H](O)C[C@]2(C)[C@@]1(O)C(=O)CO [Dexamethasone, dexamethasone]
- FEV0.1 (forced expiratory volume at 0.1 s) [1]: 5.31 ± 2.90 mL
- FEV0.3 (forced expiratory volume at 0.3 s) [1]: 15.06 ± 2.84 ^b mL
- FRC (functional residual capacity) [1]: 4.37 ± 1.48 mL
- FVC (forced vital capacity) [1]: 16.33 ± 2.01^bb mL
- MMEF (mid-maximum expiratory flow) [1]: 78.6 ± 29.1 mL/s
- PEF (maximum expiratory flow rate) [1]: 81.57 ± 29.43 mL/S
- TNF-α ([2]; alveolar lavage fluid (BALF)): 325.52 ± 49.51^bb pg/mL
- IL-6 ([2]; serum): 507.54 ± 185.62^bb pg/mL
- IL-10 ([2]; serum): 40.65 ± 6.31 ^ pg/mL
- LYM (percentage of lymphocytes) [3]: 82.15 ± 15.32%
- MONO (percentage of mononuclear cells) [3]: 0.61 ± 0.25^b %
- NEU (ratio of neutrophils) [3]: 16.57 ± 14.99%
- WBC (white blood cell count) [3]: 3.80 ± 1.53^bb *10^9/L
- MAN (mean alveolar numbers) [4]: 330.49 ± 77.29 ↑/mm^2
- MLI (mean linear intercept) [4]: 47.24 ± 5.78 μm
- Wt (bronchial wall thickness) [4]: 16.6 ± 4.01 µm
- CRP [5]: 3420.23 ± 1254.10^bb ng/mL
- SAA [5]: 19.18 ± 6.18^bb μg/mL
